Ki data for eight compounds are collected here from BindingDB's records for doi:10.1016/j.bmcl.2007.04.051 (Eli Lilly, 2007).

The target of assay [1] is T1, Estrogen receptor (Homo sapiens, UniProt P03372).
T1 sequence (P03372 whole entry): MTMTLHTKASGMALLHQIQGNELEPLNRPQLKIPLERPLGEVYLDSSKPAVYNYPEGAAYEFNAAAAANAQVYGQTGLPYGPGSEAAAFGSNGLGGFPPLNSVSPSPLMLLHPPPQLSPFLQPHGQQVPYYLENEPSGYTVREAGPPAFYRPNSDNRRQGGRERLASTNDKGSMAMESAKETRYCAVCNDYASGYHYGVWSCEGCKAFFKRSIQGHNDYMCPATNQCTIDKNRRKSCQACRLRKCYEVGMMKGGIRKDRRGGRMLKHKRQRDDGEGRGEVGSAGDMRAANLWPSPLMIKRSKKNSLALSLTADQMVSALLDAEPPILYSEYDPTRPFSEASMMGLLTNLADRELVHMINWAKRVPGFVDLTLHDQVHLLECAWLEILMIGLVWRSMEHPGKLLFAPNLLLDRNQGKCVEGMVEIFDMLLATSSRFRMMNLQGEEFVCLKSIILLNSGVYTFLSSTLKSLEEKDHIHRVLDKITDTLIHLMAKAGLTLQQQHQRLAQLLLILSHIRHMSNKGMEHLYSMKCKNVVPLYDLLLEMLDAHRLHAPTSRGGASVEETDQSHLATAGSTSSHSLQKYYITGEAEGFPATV
In words: Estrogen Receptor Binding Assay. The settings on record: pH 7.5; 22 °C. As to the method: (§1) The binding affinities were determined by a competitive radiometric binding assay using [3H]estradiol as tracer. The Kd for 3H-estradiol was determined by saturation binding to ER receptors. The IC50 values for compounds were converted to Ki using Cheng-Prusoff equation.

Assay [2] deals with Estrogen receptor beta (Homo sapiens, UniProt Q92731). In words: Estrogen Receptor Binding Assay. The conditions noted are these: pH 7.5; 22 °C. As to the method:
as §1

Sequence of Estrogen receptor beta (Q92731 whole entry): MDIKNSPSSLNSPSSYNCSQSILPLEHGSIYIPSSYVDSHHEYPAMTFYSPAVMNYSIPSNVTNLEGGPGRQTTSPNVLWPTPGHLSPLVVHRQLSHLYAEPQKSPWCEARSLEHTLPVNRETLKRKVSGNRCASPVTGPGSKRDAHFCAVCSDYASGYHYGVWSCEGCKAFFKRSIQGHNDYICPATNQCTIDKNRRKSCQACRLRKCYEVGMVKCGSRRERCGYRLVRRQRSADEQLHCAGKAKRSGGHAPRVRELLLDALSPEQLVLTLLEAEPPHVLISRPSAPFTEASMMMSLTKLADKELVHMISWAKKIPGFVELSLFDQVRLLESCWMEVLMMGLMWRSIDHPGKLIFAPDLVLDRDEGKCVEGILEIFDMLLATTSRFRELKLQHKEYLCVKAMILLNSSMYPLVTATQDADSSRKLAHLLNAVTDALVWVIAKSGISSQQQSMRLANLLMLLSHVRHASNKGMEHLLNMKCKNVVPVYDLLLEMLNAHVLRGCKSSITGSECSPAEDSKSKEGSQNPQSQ

What is called Ki is the equilibrium dissociation constant of an inhibitor or competing ligand from its target. Low readings indicate higher affinity, high ones lower affinity. In the case of `Oc1ccc([C@@H]2Oc3ccccc3[C@@H]3CCC[C@@H]32)cc1` (racemic) [4-[(2R,6S,7R)-8-oxatricyclo[7.4.0.0^{2,6}]trideca-1(9),10,12-trien-7-yl]phenol], the Ki in assay [1] came to 40 nM; in assay [2] it was 22.1 nM.

In the case of `Oc1cccc([C@@H]2Oc3ccc(O)cc3[C@@H]3CCC[C@@H]32)c1` (racemic) [(2R,6S,7R)-7-(3-hydroxyphenyl)-8-oxatricyclo[7.4.0.0^{2,6}]trideca-1(9),10,12-trien-12-ol], in assay [1], the Ki is 65 nM.

As for `Oc1ccc([C@@H]2Oc3cc(O)ccc3[C@@H]3CCC[C@@H]32)cc1` [racemic mixture], the Ki in assay [1] stood at 41 nM; in assay [2], 18.9 nM.

`Oc1ccc([C@@H]2Oc3ccc(O)cc3[C@@H]3CCCCC[C@@H]32)cc1` [racemic mixture]: the Ki in assay [1] turned out to be 6.11 nM; in assay [2], 0.88 nM.

For `Oc1ccc([C@@H]2Oc3ccc(O)cc3[C@@H]3CCCC[C@@H]32)cc1` [racemic mixture], the Ki in assay [1] is 2.88 nM; in assay [2], 0.63 nM.

Regarding `Oc1ccc([C@@H]2Oc3cccc(O)c3[C@@H]3CCC[C@@H]32)cc1` [racemic mixture], the Ki stood at 0.35 nM in assay [1] and 0.66 nM in assay [2].

As to `Oc1ccc2c(c1)[C@@H]1CCC[C@@H]1[C@H](c1ccccc1)O2` [racemic mixture], the inhibitory constant (Ki) in assay [1] amounted to 267 nM.

`Oc1ccc([C@@H]2CCc3cc(O)ccc3O2)cc1` [racemic mixture] showed an inhibition constant Ki in assay [1] of 126 nM.
